ChEMBL document CHEMBL5236582, “Trehalose diesters containing a polar functional group-modified lipid moiety: Synthesis and evaluation of Mincle-mediated signaling activity” (Bioorg Med Chem, 2022)
Calls of active or inactive are those of the source. The rule behind the calls is not given here.

Tests used:
[1] = target: T1, C-type lectin domain family 4 member E (Homo sapiens) (UniProt Q9ULY5); test: Induction of human Mincle expressed in NFAT-GFP reporter cells assessed as induction of mincle-mediated NFAT signaling activity by measuring stimulation of GFP reporter activity at 0.001 to 0.1 nmol/well incubated for 18 hrs by flow cytometry; assay type: cell-based; details: filed as agonist, dose 0.001-0.1 nmol
T1 sequence (whole entry): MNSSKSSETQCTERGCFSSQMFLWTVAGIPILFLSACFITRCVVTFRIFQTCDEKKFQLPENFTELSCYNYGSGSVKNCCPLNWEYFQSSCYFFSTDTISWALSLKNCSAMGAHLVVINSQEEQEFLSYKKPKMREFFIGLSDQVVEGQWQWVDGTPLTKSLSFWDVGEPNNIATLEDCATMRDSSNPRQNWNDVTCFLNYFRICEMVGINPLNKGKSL

[2] = target: T2, C-type lectin domain family 4 member E (Mus musculus) (UniProt Q9R0Q8); test: Induction of mouse Mincle expressed in NFAT-GFP reporter cells assessed as induction of mincle-mediated NFAT signaling activity by measuring stimulation of GFP reporter activity at 0.001 to 0.1 nmol/well incubated for 18 hrs by flow cytometry; assay type: cell-based; details: filed as agonist, dose 0.001-0.1 nmol
T2 sequence (whole entry): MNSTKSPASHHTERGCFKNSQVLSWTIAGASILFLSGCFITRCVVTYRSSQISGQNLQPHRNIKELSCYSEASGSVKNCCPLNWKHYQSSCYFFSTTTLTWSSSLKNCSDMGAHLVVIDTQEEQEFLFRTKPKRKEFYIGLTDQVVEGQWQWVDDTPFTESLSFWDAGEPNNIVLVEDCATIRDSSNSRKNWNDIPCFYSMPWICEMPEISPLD

[3] = Solubility of the compound in 1 mM DMSO; assay type: physicochemical
[4] = target: T1, C-type lectin domain family 4 member E (Homo sapiens); test: Induction of human Mincle expressed in NFAT-GFP reporter cells assessed as induction of mincle-mediated NFAT signaling activity by measuring stimulation of GFP reporter activity at 0.1 nmol/well incubated for 18 hrs by flow cytometry; assay type: cell-based; details: filed as agonist
[5] = target: T2, C-type lectin domain family 4 member E (Mus musculus); test: Induction of mouse Mincle expressed in NFAT-GFP reporter cells assessed as induction of mincle-mediated NFAT signaling activity by measuring stimulation of GFP reporter activity at 0.1 nmol/well incubated for 18 hrs by flow cytometry; assay type: cell-based; details: filed as agonist
[6] = Solubility of the compound in 8 mM DMSO; assay type: physicochemical; details: 8000 µM

SMILES	Activity [1]	Activity [2]	solubility [3]	Activity [4]	Activity [5]	solubility [6]
CCCCCCC(N)CCCCCCCCCCC(=O)OC[C@@H]1O[C@@H](O[C@H]2O[C@H](COC(=O)CCCCCCCCCCC(N)CCCCCC)[C@@H](O)[C@H](O)[C@H]2O)[C@@H](O)[C@H](O)[C@H]1O (some centres undefined)	Active	Active	–	–	–	–
CCCCCCCCCCCCC(O)CCCCCCCCC(=O)OC[C@@H]1O[C@@H](O[C@H]2O[C@H](COC(=O)CCCCCCCCC(O)CCCCCCCCCCCC)[C@@H](O)[C@H](O)[C@H]2O)[C@@H](O)[C@H](O)[C@H]1O (some centres undefined)	Active	Active	Soluble	–	–	–
CCCCCCCCCCCCCCCCCCCCCCCC(C(=O)OC[C@@H]1O[C@@H](O[C@H]2O[C@H](COC(=O)C(CCCCCCCCCCCCCCCCCCCCCCC)C(O)CCCCCCCCCCCCCCCCCC3CC3CCCCCCCCCCCCCCC3CC3CCCCCCCCCCCCCCCCCC)[C@@H](O)[C@H](O)[C@H]2O)[C@@H](O)[C@H](O)[C@H]1O)C(O)CCCCCCCCCCCCCCCCCC1CC1CCCCCCCCCCCCCCC1CC1CCCCCCCCCCCCCCCCCC (some centres undefined)	–	–	–	Active	Active	–
CCCCCCCCCCCCC(=O)CCCCCCCCC(=O)OC[C@@H]1O[C@@H](O[C@H]2O[C@H](COC(=O)CCCCCCCCC(=O)CCCCCCCCCCCC)[C@@H](O)[C@H](O)[C@H]2O)[C@@H](O)[C@H](O)[C@H]1O	Active	Active	–	–	–	–
CCCCCCCCC(N)CCCCCCCCC(=O)OC[C@@H]1O[C@@H](O[C@H]2O[C@H](COC(=O)CCCCCCCCC(N)CCCCCCCC)[C@@H](O)[C@H](O)[C@H]2O)[C@@H](O)[C@H](O)[C@H]1O (some centres undefined)	Active	Active	Soluble	–	–	–
CCCCCCCCC(O)CCCCCCCCC(=O)OC[C@@H]1O[C@@H](O[C@H]2O[C@H](COC(=O)CCCCCCCCC(O)CCCCCCCC)[C@@H](O)[C@H](O)[C@H]2O)[C@@H](O)[C@H](O)[C@H]1O (some centres undefined)	–	–	–	Active	Active	Soluble
CCCCCCCCC(=O)CCCCCCCCC(=O)OC[C@@H]1O[C@@H](O[C@H]2O[C@H](COC(=O)CCCCCCCCC(=O)CCCCCCCC)[C@@H](O)[C@H](O)[C@H]2O)[C@@H](O)[C@H](O)[C@H]1O	Active	Active	–	–	–	–
CCCCCCCC(O)CCCCCCCCCC(=O)OC[C@@H]1O[C@@H](O[C@H]2O[C@H](COC(=O)CCCCCCCCCC(O)CCCCCCC)[C@@H](O)[C@H](O)[C@H]2O)[C@@H](O)[C@H](O)[C@H]1O (some centres undefined)	Active	Active	–	–	–	–
CCCCCCC(O)CCCCCCCCCCC(=O)OC[C@@H]1O[C@@H](O[C@H]2O[C@H](COC(=O)CCCCCCCCCCC(O)CCCCCC)[C@@H](O)[C@H](O)[C@H]2O)[C@@H](O)[C@H](O)[C@H]1O (some centres undefined)	Active	Active	–	–	–	–
CCCCCCCCCCC(O)CCCCCCC(=O)OC[C@@H]1O[C@@H](O[C@H]2O[C@H](COC(=O)CCCCCCC(O)CCCCCCCCCC)[C@@H](O)[C@H](O)[C@H]2O)[C@@H](O)[C@H](O)[C@H]1O (some centres undefined)	Active	Active	–	–	–	–
CCCCCCCCCCCCCCCCCC(=O)OC[C@@H]1O[C@@H](O[C@H]2O[C@H](COC(=O)CCCCCCCCCCCCCCCCC)[C@@H](O)[C@H](O)[C@H]2O)[C@@H](O)[C@H](O)[C@H]1O	–	–	–	Active	Active	–
CCCCCCC(=O)CCCCCCCCCCC(=O)OC[C@@H]1O[C@@H](O[C@H]2O[C@H](COC(=O)CCCCCCCCCCC(=O)CCCCCC)[C@@H](O)[C@H](O)[C@H]2O)[C@@H](O)[C@H](O)[C@H]1O	Active	Active	–	–	–	–
CCCCCCCCCCCCC(N)CCCCCCCCC(=O)OC[C@@H]1O[C@@H](O[C@H]2O[C@H](COC(=O)CCCCCCCCC(N)CCCCCCCCCCCC)[C@@H](O)[C@H](O)[C@H]2O)[C@@H](O)[C@H](O)[C@H]1O (some centres undefined)	Active	Active	–	–	–	–
